Assays:
Assay type in all cases: physicochemical
[1] = Photo-DSC (P-DSC) UV cure of epoxide/diol adhesive compositions (Example 3)
Procedure: These compositions were compared to control formulations containing a cycloaliphatic epoxide obtained from Union Carbide, as product ERL-4221, which has the structure: [drawing 5]
A sample in the range of 1.5 to 3.0 mg for each composition was exposed to UV radiation and the rate of cure followed by a DPA-7 Perkin-Elmer Photo-Differential Scanning Calorimeter (P-DSC). Each sample was equilibrated to constant temperature (25 °C) on the Calorimeter for one minute and then exposed to irradiation for a total of four minutes using a 100 Watt Mercury short arc lamp. […] The diol used in the compositions, the molar ratio of epoxy to diol, and the DSC results are set out in Table 1 for the inventive styrene epoxy, and in Table 2 for the cycloaliphatic epoxy. In the Tables, Tmax is the time it took to reach the peak maximum exotherm in seconds, and ΔH is the exotherm of the reaction in kJoules per mole of epoxy, measured as the area over the cure from the four minute baseline back to the onset of exotherm.
The time the reaction takes to reach Tmax is a direct indication of the speed of the reaction; thus, the shorter the time (i.e. the sharper the peak), the faster the cure reaction for the epoxy, which is a desirable property for these adhesive compositions. In the following tables, the peak are designated either sharp or broad; for purposes herein, if more than half the exotherm occurred in the first 30 seconds, the peak was defined as sharp, and conversely, if less than half the exotherm occurred in the first 30 seconds, the peak was defined as broad.
The ΔH values are a direct indication of the degree of epoxy ring opening, with the more negative numbers reflecting the higher degree of conversion of the epoxy.

[2] = Photo-DSC analysis of various styrene oxides formulated with photoinitiator and diol (Example 6)
Procedure: A sample in the range of 1.5 to 3.0 mg for each composition was exposed to UV radiation and the rate of cure followed by a DPA-7 Perkin-Elmer Photo-Differential Scanning Calorimeter (P-DSC). Each sample was equilibrated to constant temperature (25 °C) on the Calorimeter for one minute and then exposed to irradiation for a total of four minutes using a 100 Watt Mercury short arc lamp. […] In the Tables, Tmax is the time it took to reach the peak maximum exotherm in seconds, and ΔH is the exotherm of the reaction in kJoules per mole of epoxy, measured as the area over the cure from the four minute baseline back to the onset of exotherm.
Photo-DSC of various styrene oxides was conducted by formulating the epoxides with a photoinitiator and a diol.

[3] = Storage stability of the epoxide at room temperature
Procedure: The epoxidation may be performed on the starting olefinic compound by any suitable method known in the art, but is preferably conducted through a potassium monopersulfate/acetone oxidation of the olefinic portion of the corresponding styrene. The styrene compound is suspended in a mixture of acetone and water, and buffered with sodium bicarbonate, which serves to prevent decomposition of the resultant oxides. This suspension is then treated with an excess of the oxidant, provided as an aqueous solution of the monopersulfate compound (2KHSO5.KHSO4.K2SO4,) (Oxone®, a product of DuPont). The recovered solution is partitioned with ethyl acetate, toluene, methylene chloride, or other suitable solvent. Workup consists of washing the organic layer with water followed by drying with a non-acidic drying agent (e.g., anhydrous […]). Filtering this mixture, followed by removal of organic solvent in vacuo, affords the desired epoxide in high yield without further purification. […]
A suspension of 1 equivalent of 1,3-diisopropenyl benzene (5mL, 0.925g/mL, 29.2mmol) and 6 equivalents of sodium bicarbonate (15.9g, 190mmol) in a 2 : 1 mixture (volume : volume) of acetone : water (total 450mL) was treated with an aqueous solution containing 2 equivalents of potassium persulfate (Oxone®) (36.5g, 59.3mmol). […] The pH was monitored during this time and remained neutral. […]

[4] = Stepanol PS-4002, Epoxy:Diol 1:1
[5] = Stepanol PS-4002, Epoxy:Diol 3:1

**Q.** Which Tmax ([1]; MP-diol, Epoxy:Diol 1:1) does the source give for `O=C(OCC1CCC2OC2C1)C1CCC2OC2C1` (stereo not drawn) [ERL-4221] here?
**A.** 21.20 s

**Q.** What about the ΔH ([1]; MP-diol, Epoxy:Diol 1:1) of the same molecule?
**A.** -78.4 kJ/mole epoxide

**Q.** What about the Tmax ([1]; MP-diol, Epoxy:Diol 3:1) of the same molecule?
**A.** 6.39 s

**Q.** And the ΔH ([1]; MP-diol, Epoxy:Diol 3:1)?
**A.** -49.0 kJ/mole epoxide

**Q.** What about the Tmax ([1]; Rucoflex 107, Epoxy:Diol 1:1) of the same molecule?
**A.** 6.81 s

**Q.** And the ΔH ([1]; Rucoflex 107, Epoxy:Diol 1:1)?
**A.** -68.9 kJ/mole epoxide

**Q.** And the Tmax ([1]; Rucoflex 107, Epoxy:Diol 3:1)?
**A.** 2.10 s

**Q.** And the ΔH ([1]; Rucoflex 107, Epoxy:Diol 3:1)?
**A.** -42.9 kJ/mole epoxide

**Q.** What about the Tmax [1, 4] of the same molecule?
**A.** 17.10 s

**Q.** And the ΔH [1, 4]?
**A.** -79.4 kJ/mole epoxide

**Q.** What about the Tmax [1, 5] of the same molecule?
**A.** 5.34 s

**Q.** What about the ΔH [1, 5] of the same molecule?
**A.** -14.3 kJ/mole epoxide

**Q.** And the Tmax ([1]; SynFac 8031, Epoxy:Diol 1:1)?
**A.** 13.47 s

**Q.** And the ΔH ([1]; SynFac 8031, Epoxy:Diol 1:1)?
**A.** -67.8 kJ/mole epoxide

**Q.** What about the Tmax ([1]; SynFac 8031, Epoxy:Diol 3:1) of the same molecule?
**A.** 13.17 s

**Q.** And the ΔH ([1]; SynFac 8031, Epoxy:Diol 3:1)?
**A.** -39.7 kJ/mole epoxide

**Q.** And the Tmax ([1]; Tone 0201, Epoxy:Diol 1:1)?
**A.** 9.21 s

**Q.** What about the ΔH ([1]; Tone 0201, Epoxy:Diol 1:1) of the same molecule?
**A.** -62.0 kJ/mole epoxide

**Q.** What about the Tmax ([1]; Tone 0201, Epoxy:Diol 1:3) of the same molecule?
**A.** 42.66 s

**Q.** What about the ΔH ([1]; Tone 0201, Epoxy:Diol 1:3) of the same molecule?
**A.** -44.0 kJ/mole epoxide

**Q.** What about the Tmax ([1]; Tone 0201, Epoxy:Diol 3:1) of the same molecule?
**A.** 6.00 s

**Q.** And the ΔH ([1]; Tone 0201, Epoxy:Diol 3:1)?
**A.** -30.3 kJ/mole epoxide

**Q.** And the Tmax ([1]; no diol, 1% UVI-6974, 25 °C)?
**A.** 4.62 s

**Q.** And the ΔH ([1]; no diol, 1% UVI-6974, 25 °C)?
**A.** -10.0 kJ/mole epoxide

**Q.** And the extents of cure ([1]; range over all diols and ratios of Tables 1 and 2)?
**A.** -79.4 to -10.0 kJ

**Q.** Which ΔH ([2]; Tone polyol, Epoxy:Diol 1:1) does the source give for “1,3-diisopropenylbenzene dioxide [Example 1]” here?
**A.** -72.8 kJ/Mole EPOXIDE

**Q.** And the ΔH ([2]; no diol)?
**A.** -57.8 kJ/Mole EPOXIDE

**Q.** And the “advancement of the epoxide” value ([3]; after 13 days at room temperature)?
**A.** no advancement

**Q.** What about the Tmax ([1]; MP-diol, Epoxy:Diol 1:1) of the same molecule?
**A.** 4.35 s

**Q.** And the ΔH ([1]; MP-diol, Epoxy:Diol 1:1)?
**A.** -77.4 kJ/mole epoxide

**Q.** What about the Tmax ([1]; MP-diol, Epoxy:Diol 3:1) of the same molecule?
**A.** 2.94 s

**Q.** What about the ΔH ([1]; MP-diol, Epoxy:Diol 3:1) of the same molecule?
**A.** -58.2 kJ/mole epoxide

**Q.** What about the Tmax ([1]; Rucoflex 107, Epoxy:Diol 1:1) of the same molecule?
**A.** 4.32 s

**Q.** And the ΔH ([1]; Rucoflex 107, Epoxy:Diol 1:1)?
**A.** -84.1 kJ/mole epoxide

**Q.** What about the Tmax ([1]; Rucoflex 107, Epoxy:Diol 3:1) of the same molecule?
**A.** 4.20 s

**Q.** And the ΔH ([1]; Rucoflex 107, Epoxy:Diol 3:1)?
**A.** -79.1 kJ/mole epoxide

**Q.** And the Tmax [1, 4]?
**A.** 6.12 s

**Q.** What about the ΔH [1, 4] of the same molecule?
**A.** -76.0 kJ/mole epoxide

**Q.** And the Tmax [1, 5]?
**A.** 4.83 s

**Q.** And the ΔH [1, 5]?
**A.** -62.6 kJ/mole epoxide

**Q.** What about the Tmax ([1]; SynFac 8031, Epoxy:Diol 1:1) of the same molecule?
**A.** 4.74 s

**Q.** What about the ΔH ([1]; SynFac 8031, Epoxy:Diol 1:1) of the same molecule?
**A.** -71.8 kJ/mole epoxide

**Q.** What about the Tmax ([1]; SynFac 8031, Epoxy:Diol 3:1) of the same molecule?
**A.** 3.57 s

**Q.** What about the ΔH ([1]; SynFac 8031, Epoxy:Diol 3:1) of the same molecule?
**A.** -65.5 kJ/mole epoxide

**Q.** And the Tmax ([1]; Tone 0201, Epoxy:Diol 1:1)?
**A.** 3.57 s

**Q.** And the ΔH ([1]; Tone 0201, Epoxy:Diol 1:1)?
**A.** -73.4 kJ/mole epoxide

**Q.** What about the Tmax ([1]; Tone 0201, Epoxy:Diol 1:3) of the same molecule?
**A.** 4.59 s

**Q.** What about the ΔH ([1]; Tone 0201, Epoxy:Diol 1:3) of the same molecule?
**A.** -75.9 kJ/mole epoxide

**Q.** What about the Tmax ([1]; Tone 0201, Epoxy:Diol 3:1) of the same molecule?
**A.** 3.96 s

**Q.** What about the ΔH ([1]; Tone 0201, Epoxy:Diol 3:1) of the same molecule?
**A.** -56.4 kJ/mole epoxide

**Q.** What about the Tmax ([1]; no diol, 1% UVI-6974, 25 °C) of the same molecule?
**A.** 3.84 s

**Q.** And the ΔH ([1]; no diol, 1% UVI-6974, 25 °C)?
**A.** -57.8 kJ/mole epoxide

**Q.** Which results are given for `CC1OC1c1ccccc1` (stereo not drawn) [beta-methyl styrene epoxy, beta-methyl styrene mono-epoxide]?
**A.** ΔH ([2]; MP-diol, Epoxy:Diol 1:1): -102.6 kJ/Mole EPOXIDE; ΔH ([2]; MP-diol, Epoxy:Diol 3:1): -75.7 kJ/Mole EPOXIDE; ΔH ([2]; Tone polyol, Epoxy:Diol 1:1): -80.5 kJ/Mole EPOXIDE; ΔH ([2]; Tone polyol, Epoxy:Diol 3:1): -54.5 kJ/Mole EPOXIDE; ΔH ([2]; no diol): -85.4 kJ/Mole EPOXIDE

**Q.** With `COCC1OC1c1ccccc1` (stereo not drawn) [cinnamyl methyl ether epoxy, cinnamyl methyl ether epoxide] as the molecule, how does the ΔH ([2]; MP-diol, Epoxy:Diol 1:1) read?
**A.** -57.8 kJ/Mole EPOXIDE

**Q.** What about the ΔH ([2]; MP-diol, Epoxy:Diol 3:1) of the same molecule?
**A.** -63.6 kJ/Mole EPOXIDE

**Q.** What about the ΔH ([2]; Tone polyol, Epoxy:Diol 1:1) of the same molecule?
**A.** -98,8 kJ/Mole EPOXIDE

**Q.** And the ΔH ([2]; Tone polyol, Epoxy:Diol 3:1)?
**A.** -82,4 kJ/Mole EPOXIDE

**Q.** And the ΔH ([2]; no diol)?
**A.** -43.9 kJ/Mole EPOXIDE

**Q.** Which results are given for `CC1(c2ccccc2)CO1` (stereo not drawn) [alpha methyl styrene epoxy]?
**A.** ΔH ([2]; MP-diol, Epoxy:Diol 1:1): -80.9 kJ/Mole EPOXIDE; ΔH ([2]; MP-diol, Epoxy:Diol 3:1): -56.4 kJ/Mole EPOXIDE; ΔH ([2]; Tone polyol, Epoxy:Diol 1:1): -76.5 kJ/Mole EPOXIDE; ΔH ([2]; Tone polyol, Epoxy:Diol 3:1): -66.7 kJ/Mole EPOXIDE; ΔH ([2]; no diol): -53.3 kJ/Mole EPOXIDE

**Q.** With `COc1cc(C2OC2C)ccc1OC(C)=O` (stereo not drawn) [isoeugenol acetate epoxy, isoeugenol acetate epoxide] as the molecule, how does the ΔH ([2]; MP-diol, Epoxy:Diol 1:1) read?
**A.** -70,1 kJ/Mole EPOXIDE

**Q.** And the ΔH ([2]; MP-diol, Epoxy:Diol 3:1)?
**A.** -67.6 kJ/Mole EPOXIDE

**Q.** What about the ΔH ([2]; Tone polyol, Epoxy:Diol 1:1) of the same molecule?
**A.** -75.0 kJ/Mole EPOXIDE

**Q.** And the ΔH ([2]; Tone polyol, Epoxy:Diol 3:1)?
**A.** -65.0 kJ/Mole EPOXIDE

**Q.** And the ΔH ([2]; no diol)?
**A.** -15.7 kJ/Mole EPOXIDE

**Q.** With `CC(=O)OCC1OC1c1ccccc1` (stereo not drawn) [cinnamyl acetate epoxy, cinnamyl acetate epoxide] as the molecule, how does the ΔH ([2]; MP-diol, Epoxy:Diol 1:1) read?
**A.** -27.5 kJ/Mole EPOXIDE

**Q.** What about the ΔH ([2]; MP-diol, Epoxy:Diol 3:1) of the same molecule?
**A.** -16.1 kJ/Mole EPOXIDE

**Q.** What about the ΔH ([2]; Tone polyol, Epoxy:Diol 1:1) of the same molecule?
**A.** -55.6 kJ/Mole EPOXIDE

**Q.** And the ΔH ([2]; Tone polyol, Epoxy:Diol 3:1)?
**A.** -30.8 kJ/Mole EPOXIDE

**Q.** What about the ΔH ([2]; no diol) of the same molecule?
**A.** 0 kJ/Mole EPOXIDE

**Q.** Which “advancement of the epoxide” value ([3]; after one year at room temperature) does the source give for divinylbenzene dioxide [Example 2] here?
**A.** no advancement

Source: patent EP0878472A1, “Reactive radiation- or thermally- initiated cationically-curable epoxide monomers and compositions made from those monomers” (National Starch and Chemical Investment Holding Corporation, priority 1997, dated 1998)
